According to paper PMC2375326, “In vitro evaluation of amino acid prodrugs of novel antitumour 2-(4-amino-3-methylphenyl)benzothiazoles” (British Journal of Cancer, 2002):

How the values were obtained:
NCIH23 = test: NCI in vitro cytotoxicity assay (SRB), NCIH23; type: cell-based; conditions: Homo sapiens, NCI-H23; 48 h exposure, sulforhodamine B assay, mean graph; read-out: Log10 GI50 (NCIH23) (converted)
Procedure: (§1) Cell culture and drug application procedures have been described previously ([Boyd and Paull, 1995]). Briefly, cell lines were inoculated into a series of 96-well microtiter plates, with varied seeding densities depending on growth characteristics of each cell line. Following a 24 h drug free incubation, test agents were added at five 10-fold dilutions with a maximum concentration of 100 μM. Cellular protein levels were determined after 48 h drug exposure by sulphorhodamine B colorimetry.

OVCAR-8 = test: NCI in vitro cytotoxicity assay (SRB), OVCAR-8; type: cell-based; conditions: Homo sapiens, 48 h exposure, sulforhodamine B assay, mean graph, read-out: Log10 GI50 (OVCAR-8) (converted)
Procedure: as §1

HOP-92 = test: NCI in vitro cytotoxicity assay (SRB), HOP-92; type: cell-based; conditions: Homo sapiens, 48 h exposure, sulforhodamine B assay, mean graph, read-out: Log10 GI50 (HOP-92) (converted)
Procedure: as §1

HCT-15 = test: NCI in vitro cytotoxicity assay (SRB), HCT-15; type: cell-based; conditions: Homo sapiens, 48 h exposure, sulforhodamine B assay, mean graph, read-out: Log10 GI50 (HCT-15) (converted)
Procedure: as §1

SK-OV-3 = test: NCI in vitro cytotoxicity assay (SRB), SK-OV-3; type: cell-based; conditions: Homo sapiens, 48 h exposure, sulforhodamine B assay, mean graph, read-out: Log10 GI50 (SK-OV-3) (converted)
Procedure: as §1

UO 31 = test: NCI in vitro cytotoxicity assay (SRB), UO 31; type: cell-based; conditions: Homo sapiens, 48 h exposure, sulforhodamine B assay, mean graph, read-out: Log10 GI50 (UO 31) (converted)
Procedure: as §1

PC-3 = test: NCI in vitro cytotoxicity assay (SRB), PC-3; type: cell-based; conditions: Homo sapiens, 48 h exposure, sulforhodamine B assay, mean graph, read-out: Log10 GI50 (PC-3) (converted)
Procedure: as §1

A549/ATCC = test: NCI in vitro cytotoxicity assay (SRB), A549/ATCC; type: cell-based; conditions: Homo sapiens, 48 h exposure, sulforhodamine B assay, mean graph, read-out: Log10 GI50 (A549/ATCC) (converted)
Procedure: as §1

SF-539 = test: NCI in vitro cytotoxicity assay (SRB), SF-539; type: cell-based; conditions: Homo sapiens, 48 h exposure, sulforhodamine B assay, mean graph, read-out: Log10 GI50 (SF-539) (converted)
Procedure: as §1

UACC-62 = test: NCI in vitro cytotoxicity assay (SRB), UACC-62; type: cell-based; conditions: Homo sapiens, 48 h exposure, sulforhodamine B assay, mean graph, read-out: Log10 GI50 (UACC-62) (converted)
Procedure: as §1

HOP-62 = test: NCI in vitro cytotoxicity assay (SRB), HOP-62; type: cell-based; conditions: Homo sapiens, 48 h exposure, sulforhodamine B assay, mean graph, read-out: Log10 GI50 (HOP-62) (converted)
Procedure: as §1

SW-620 = test: NCI in vitro cytotoxicity assay (SRB), SW-620; type: cell-based; conditions: Homo sapiens, 48 h exposure, sulforhodamine B assay, mean graph, read-out: Log10 GI50 (SW-620) (converted)
Procedure: as §1

NCI-H226 = test: NCI in vitro cytotoxicity assay (SRB), NCI-H226; type: cell-based; conditions: Homo sapiens, 48 h exposure, sulforhodamine B assay, mean graph, read-out: Log10 GI50 (NCI-H226) (converted)
Procedure: as §1

SN12C = test: NCI in vitro cytotoxicity assay (SRB), SN12C; type: cell-based; conditions: Homo sapiens, 48 h exposure, sulforhodamine B assay, mean graph, read-out: Log10 GI50 (SN12C) (converted)
Procedure: as §1

CYP1A1 = molecular target: T1, CYP1A1 (Homo sapiens, UniProt P04798); test: Inhibition of recombinant CYP1A1 microsomal EROD activity; type: biochemical; conditions: microsomes expressing recombinant CYP1A1, pH 7.4, probe 7-ethoxyresorufin (100 μM); 30 μM agent; incubates without drug = 100% activity; mean of three, s.d. <10%; read-out: Microsomal CYP1A1 EROD activity (% control)
T1 sequence (P04798 1-512): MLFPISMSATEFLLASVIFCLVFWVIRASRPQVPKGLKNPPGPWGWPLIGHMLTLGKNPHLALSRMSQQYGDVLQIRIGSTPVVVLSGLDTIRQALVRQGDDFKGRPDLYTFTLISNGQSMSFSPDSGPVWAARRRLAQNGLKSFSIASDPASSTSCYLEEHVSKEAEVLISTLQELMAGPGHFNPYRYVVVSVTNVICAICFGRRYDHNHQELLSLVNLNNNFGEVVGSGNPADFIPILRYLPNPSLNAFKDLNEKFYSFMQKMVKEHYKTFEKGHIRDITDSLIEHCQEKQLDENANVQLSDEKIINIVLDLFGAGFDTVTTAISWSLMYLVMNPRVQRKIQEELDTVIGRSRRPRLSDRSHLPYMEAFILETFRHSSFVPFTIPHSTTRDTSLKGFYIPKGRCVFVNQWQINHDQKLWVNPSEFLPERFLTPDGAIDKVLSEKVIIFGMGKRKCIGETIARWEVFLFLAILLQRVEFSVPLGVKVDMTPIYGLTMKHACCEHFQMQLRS
Procedure: A sensitive and rapid fluorometric assay was used to measure EROD activity ([Burke et al, 1994]). Incubation mixtures (total 1 ml) consisted of 100 mM Tris-HCl (pH 7.4), 50 μM MgCl2, 100 μM 7-ethoxyresorufin and 100 μl cell homogenate. Homogenates were prepared following treatment of cells for 24 h with compounds 1, 2, 2a, 2b, 3, 3a, 3b, 4, 4a and 4b or vehicle alone and protein content determined (n=3). Thus induction of ethoxyresorufin O-deethylation by agents under study, catalysed by CYP1A1 activity, could be determined. Alternatively, microsomes expressing recombinant CYP1A1 (0.1 mg ml^−1) provided the enzyme source for EROD catalysis, in the presence or absence of drug, in order to determine inhibition of CYP1A1 activity by compounds 1, 2, 2a, 2b, 3, 3a, 3b, 4, 4a and 4b. Incubation mixtures were pre-incubated for 5 min at 37°C before initiation of reaction by addition of NADPH (500 μM). Following further incubations at 37°C (30 min for cell homogenates, 15 min for CYP1A1 microsomes), reactions were terminated by addition of 3 ml ice-cold acetonitrile. Reaction mixtures were centrifuged (1400 r.p.m., 10 min) before analyses of supernatants. Fluorescence was read on a Perkin-Elmer LS-5 luminescence spectrometer (excitation, 530 nm; emission 585 nm). Estimation of resorufin reaction product (pmoles mg^−1 protein, pmoles 100 μg^−1 microsomes), as a measure of CYP1A1 activity, was determined following performance of a resorufin standard curve.

Row | SMILES | GI50 (NCIH23) | GI50 (OVCAR-8) | GI50 (HOP-92) | GI50 (HCT-15) | GI50 (SK-OV-3) | GI50 (UO 31) | GI50 (PC-3) | GI50 (A549/ATCC) | GI50 (SF-539) | GI50 (UACC-62) | GI50 (HOP-62) | GI50 (SW-620) | GI50 (NCI-H226) | GI50 (SN12C) | activity at 15 min, 30 μM (CYP1A1)
1 | Cc1cc(-c2nc3cc(F)ccc3s2)ccc1N [Compound 2, 2-(4-Amino-3-methylphenyl)-5-fluorobenzothiazole] | 51.3 µM | > 100 µM | 36.3 µM | 7.94 µM | 83.2 µM | 85.1 µM | 23.4 µM | 6.92 µM | 27.5 µM | 57.5 µM | 18.6 µM | > 100 µM | < 0.01 µM | 74.1 µM | 30.4%
2 | Cc1cc(-c2nc3cc(F)ccc3s2)ccc1NC(=O)[C@@H](N)CCCCN [Compound 2b] | 6.17 µM | 11.2 µM | 15.1 µM | 5.25 µM | 16.2 µM | 3.09 µM | 12.6 µM | 1.7 µM | 14.1 µM | 14.1 µM | 6.31 µM | 3.63 µM | 0.155 µM | 12.3 µM | 38.5%
